Source: the supplement of paper PMC10307832

Legend:
Assay in all cases: relative viability (nuclei count vs DMSO), 5 days (fraction); higher = more cells survive
Bleomycin + Alpelisib = compound: CC1=C(N=C(N=C1N)[C@H](CC(=O)N)NC[C@@H](C(=O)N)N)C(=O)N[C@@H]([C@H](C2=CN=CN2)OC3C(C(C(C(O3)CO)O)O)OC4C(C(C(C(O4)CO)O)OC(=O)N)O)C(=O)N[C@H](C)[C@H]([C@H](C)C(=O)N[C@@H]([C@@H](C)O)C(=O)NCCC5=NC(=CS5)C6=NC(=CS6)C(=O)NCCC[S+](C)C)O [Bleomycin] + Cc1nc(NC(=O)N2CCC[C@H]2C(N)=O)sc1-c1ccnc(C(C)(C)C(F)(F)F)c1 [Alpelisib] (partner 2 µM); conditions: main component drawn
Outline: (§1)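 One day after seeding in 1536-well plates, lung cancer cell lines were dosed by pin tool. Dosing was either single-drug or a fixed anchor-drug dose plus five library-drug doses (not always all listed) in √10 steps. After 5 days, nuclei were stained in one fix-and-stain step and counted on 4× images, and relative viability is the nuclei count of treated wells over that of vehicle wells, given as the median of duplicate plates.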

Etoposide + Palbociclib = compound: COc1cc([C@@H]2c3cc4c(cc3[C@@H](O[C@@H]3O[C@@H]5CO[C@@H](C)O[C@H]5[C@H](O)[C@H]3O)[C@H]3COC(=O)[C@H]23)OCO4)cc(OC)c1O [Etoposide] + CC(=O)c1c(C)c2cnc(Nc3ccc(N4CCNCC4)cn3)nc2n(C2CCCC2)c1=O [Palbociclib] (partner 0.5 µM)
Outline: as §1

Etoposide + Navitoclax = compound: COc1cc([C@@H]2c3cc4c(cc3[C@@H](O[C@@H]3O[C@@H]5CO[C@@H](C)O[C@H]5[C@H](O)[C@H]3O)[C@H]3COC(=O)[C@H]23)OCO4)cc(OC)c1O [Etoposide] + CC1(C)CCC(c2ccc(Cl)cc2)=C(CN2CCN(c3ccc(C(=O)NS(=O)(=O)c4ccc(N[C@H](CCN5CCOCC5)CSc5ccccc5)c(S(=O)(=O)C(F)(F)F)c4)cc3)CC2)C1 [Navitoclax] (partner 0.5 µM)
Outline: as §1

Etoposide + Linsitinib = compound: COc1cc([C@@H]2c3cc4c(cc3[C@@H](O[C@@H]3O[C@@H]5CO[C@@H](C)O[C@H]5[C@H](O)[C@H]3O)[C@H]3COC(=O)[C@H]23)OCO4)cc(OC)c1O [Etoposide] + C[C@]1(O)C[C@@H](c2nc(-c3ccc4ccc(-c5ccccc5)nc4c3)c3c(N)nccn32)C1 [Linsitinib] (partner 1 µM)
Outline: as §1

UMC-11
relative viability (Bleomycin + Alpelisib; first compound 0.01 µM): 0.873
relative viability (Bleomycin + Alpelisib; first compound 0.03162 µM): 0.935
relative viability (Bleomycin + Alpelisib; first compound 0.1 µM): 0.826
relative viability (Bleomycin + Alpelisib; first compound 0.3162 µM): 0.598
relative viability (Bleomycin + Alpelisib; first compound 1 µM): 0.44
relative viability (Etoposide + Palbociclib; first compound 0.01 µM): 0.327
relative viability (Etoposide + Palbociclib; first compound 0.03162 µM): 0.308
relative viability (Etoposide + Palbociclib; first compound 0.1 µM): 0.312
relative viability (Etoposide + Palbociclib; first compound 0.3162 µM): 0.313
relative viability (Etoposide + Palbociclib; first compound 1 µM): 0.298
relative viability (Etoposide + Navitoclax; first compound 0.01 µM): 0.344
relative viability (Etoposide + Navitoclax; first compound 0.03162 µM): 0.307
relative viability (Etoposide + Navitoclax; first compound 0.3162 µM): 0.193
relative viability (Etoposide + Navitoclax; first compound 1 µM): 0.155
relative viability (Etoposide + Linsitinib; first compound 0.01 µM): 0.962
relative viability (Etoposide + Linsitinib; first compound 0.03162 µM): 1.05
relative viability (Etoposide + Linsitinib; first compound 0.3162 µM): 0.493
relative viability (Etoposide + Linsitinib; first compound 1 µM): 0.302
